Reference: ChEMBL document CHEMBL3885861, “Open TG-GATES”

Species on record: Rattus norvegicus
Assay: Open TG-GATES - Regimen: Single
Type: toxicity, organism-based, Sprague-Dawley
Parameters: regimen Single, gender Male, age 6 weeks
Conditions: in vivo, iv, 60 mg/kg, route intravenous injection, dose level High; for APTT / Bas / Eos / Fbg / Hb / Ht / Lym / MCH / MCHC / MCV / Mono / Neu / PT / Plat / RBC / Ret / WBC: tissue Blood; for KIDNEY_L / KIDNEY_R / KIDNEY_TOTAL: tissue Kidney; for LIVER: tissue Liver; for A/G / ALP / ALT / AST / BUN / CRE / Ca / Cl / DBIL / GLC / IP / K / LDH / Na / PL / RALB / TBIL / TC / TG / TP / gamma-GTP: tissue Plasma

Q: With `NCCBr` [BROMOETHANAMINE] as the compound, how does the TERMINAL_BW (3 h) read?
A: 212.4 g

Q: And the APTT (3 h)?
A: 23.5 s

Q: And the Bas (3 h)?
A: 0%

Q: What about the Eos (3 h) of the same compound?
A: 0.6%

Q: What about the Fbg (3 h) of the same compound?
A: 312.8 mg/dL

Q: And the Hb (3 h)?
A: 14.4 g/dL

Q: What about the Ht (3 h) of the same compound?
A: 41.9%

Q: What about the Lym (3 h) of the same compound?
A: 70.8%

Q: And the MCH (3 h)?
A: 21.8 pg

Q: And the MCHC (3 h)?
A: 34.5%

Q: And the MCV (3 h)?
A: 63.3 fL

Q: What about the Mono (3 h) of the same compound?
A: 2.4%

Q: What about the Neu (3 h) of the same compound?
A: 25.4%

Q: What about the PT (3 h) of the same compound?
A: 16.1 s

Q: And the Plat (3 h)?
A: 131.5 x10_4/uL

Q: What about the RBC (3 h) of the same compound?
A: 661.2 x10_4/ul

Q: What about the Ret (3 h) of the same compound?
A: 6%

Q: What about the WBC (3 h) of the same compound?
A: 39.6 x10_2/uL

Q: What about the KIDNEY_L (3 h) of the same compound?
A: 0.9 g

Q: And the KIDNEY_R (3 h)?
A: 1 g

Q: And the KIDNEY_TOTAL (3 h)?
A: 1.9 g

Q: What about the LIVER (3 h) of the same compound?
A: 9.3 g

Q: And the A/G (3 h)?
A: 1.2

Q: What about the ALP (3 h) of the same compound?
A: 1494.4 IU/L

Q: And the ALT (3 h)?
A: 47 IU/L

Q: What about the AST (3 h) of the same compound?
A: 56.8 IU/L

Q: What about the BUN (3 h) of the same compound?
A: 13.4 mg/dL

Q: And the CRE (3 h)?
A: 0.1 mg/dL

Q: What about the Ca (3 h) of the same compound?
A: 10.7 mg/dL

Q: And the Cl (3 h)?
A: 106.8 meq/L

Q: What about the DBIL (3 h) of the same compound?
A: 0.002 mg/dL

Q: And the GLC (3 h)?
A: 166.2 mg/dL

Q: What about the IP (3 h) of the same compound?
A: 10.5 mg/dL

Q: What about the K (3 h) of the same compound?
A: 4.1 meq/L

Q: And the LDH (3 h)?
A: 321.8 IU/L

Q: And the Na (3 h)?
A: 143.4 meq/L

Q: What about the PL (3 h) of the same compound?
A: 141 mg/dL

Q: What about the RALB (3 h) of the same compound?
A: 3.1 g/dL

Q: And the TBIL (3 h)?
A: 0.014 mg/dL

Q: And the TC (3 h)?
A: 85.4 mg/dL

Q: What about the TG (3 h) of the same compound?
A: 46.4 mg/dL

Q: And the TP (3 h)?
A: 5.9 g/dL

Q: And the gamma-GTP (3 h)?
A: 1 IU/L

Q: And the TERMINAL_BW (6 h)?
A: 208.7 g

Q: And the APTT (6 h)?
A: 23.1 s

Q: And the Bas (6 h)?
A: 0%

Q: And the Eos (6 h)?
A: 0.6%

Q: And the Fbg (6 h)?
A: 325.6 mg/dL

Q: And the Hb (6 h)?
A: 14.2 g/dL

Q: And the Ht (6 h)?
A: 40.9%

Q: What about the Lym (6 h) of the same compound?
A: 74.2%

Q: What about the MCH (6 h) of the same compound?
A: 20.9 pg

Q: What about the MCHC (6 h) of the same compound?
A: 34.8%

Q: And the MCV (6 h)?
A: 60.1 fL

Q: And the Mono (6 h)?
A: 1.6%

Q: What about the Neu (6 h) of the same compound?
A: 23.2%

Q: What about the PT (6 h) of the same compound?
A: 16.1 s

Q: And the Plat (6 h)?
A: 136 x10_4/uL

Q: And the RBC (6 h)?
A: 681 x10_4/ul

Q: What about the Ret (6 h) of the same compound?
A: 5.4%

Q: And the WBC (6 h)?
A: 35.9 x10_2/uL

Q: What about the KIDNEY_L (6 h) of the same compound?
A: 1 g

Q: What about the KIDNEY_R (6 h) of the same compound?
A: 1 g

Q: What about the KIDNEY_TOTAL (6 h) of the same compound?
A: 2 g

Q: And the LIVER (6 h)?
A: 9.1 g

Q: What about the A/G (6 h) of the same compound?
A: 1.2

Q: And the ALP (6 h)?
A: 1401.4 IU/L

Q: What about the ALT (6 h) of the same compound?
A: 39.2 IU/L

Q: And the AST (6 h)?
A: 54.2 IU/L

Q: And the BUN (6 h)?
A: 15.6 mg/dL

Q: And the CRE (6 h)?
A: 0.1 mg/dL

Q: What about the Ca (6 h) of the same compound?
A: 10.6 mg/dL

Q: What about the Cl (6 h) of the same compound?
A: 101.4 meq/L

Q: What about the DBIL (6 h) of the same compound?
A: 0.004 mg/dL

Q: And the GLC (6 h)?
A: 201 mg/dL

Q: And the IP (6 h)?
A: 10.2 mg/dL

Q: What about the K (6 h) of the same compound?
A: 4 meq/L

Q: What about the LDH (6 h) of the same compound?
A: 362.4 IU/L

Q: And the Na (6 h)?
A: 142 meq/L

Q: What about the PL (6 h) of the same compound?
A: 133 mg/dL

Q: What about the RALB (6 h) of the same compound?
A: 3.2 g/dL

Q: And the TBIL (6 h)?
A: 0.01 mg/dL

Q: And the TC (6 h)?
A: 80.8 mg/dL

Q: What about the TG (6 h) of the same compound?
A: 27.6 mg/dL

Q: What about the TP (6 h) of the same compound?
A: 6 g/dL

Q: What about the gamma-GTP (6 h) of the same compound?
A: 1.2 IU/L

Q: And the TERMINAL_BW (9 h)?
A: 202.6 g

Q: And the APTT (9 h)?
A: 24.1 s

Q: What about the Bas (9 h) of the same compound?
A: 0%

Q: What about the Eos (9 h) of the same compound?
A: 0.2%

Q: What about the Fbg (9 h) of the same compound?
A: 341.6 mg/dL

Q: And the Hb (9 h)?
A: 14.9 g/dL

Q: And the Ht (9 h)?
A: 42.6%

Q: What about the Lym (9 h) of the same compound?
A: 71%

Q: And the MCH (9 h)?
A: 21.5 pg

Q: What about the MCHC (9 h) of the same compound?
A: 35%

Q: What about the MCV (9 h) of the same compound?
A: 61.4 fL

Q: What about the Mono (9 h) of the same compound?
A: 3.2%

Q: And the Neu (9 h)?
A: 24.2%

Q: And the PT (9 h)?
A: 15.8 s

Q: What about the Plat (9 h) of the same compound?
A: 135.3 x10_4/uL

Q: What about the RBC (9 h) of the same compound?
A: 695 x10_4/ul

Q: And the Ret (9 h)?
A: 5.2%

Q: And the WBC (9 h)?
A: 40.1 x10_2/uL

Q: And the KIDNEY_L (9 h)?
A: 1 g

Q: What about the KIDNEY_R (9 h) of the same compound?
A: 1 g

Q: And the KIDNEY_TOTAL (9 h)?
A: 2 g

Q: What about the LIVER (9 h) of the same compound?
A: 8.8 g

Q: What about the A/G (9 h) of the same compound?
A: 1.2

Q: And the ALP (9 h)?
A: 1484.2 IU/L

Q: What about the ALT (9 h) of the same compound?
A: 34.4 IU/L

Q: What about the AST (9 h) of the same compound?
A: 49.6 IU/L

Q: What about the BUN (9 h) of the same compound?
A: 19.8 mg/dL

Q: And the CRE (9 h)?
A: 0.2 mg/dL

Q: And the Ca (9 h)?
A: 10.7 mg/dL

Q: And the Cl (9 h)?
A: 101.4 meq/L

Q: What about the DBIL (9 h) of the same compound?
A: 0 mg/dL

Q: And the GLC (9 h)?
A: 223.8 mg/dL

Q: What about the IP (9 h) of the same compound?
A: 9.1 mg/dL

Q: What about the K (9 h) of the same compound?
A: 3.6 meq/L

Q: And the LDH (9 h)?
A: 316.2 IU/L

Q: What about the Na (9 h) of the same compound?
A: 142 meq/L

Q: And the PL (9 h)?
A: 154.6 mg/dL

Q: What about the RALB (9 h) of the same compound?
A: 3.4 g/dL

Q: And the TBIL (9 h)?
A: 0.016 mg/dL

Q: And the TC (9 h)?
A: 86.8 mg/dL

Q: And the TG (9 h)?
A: 84.2 mg/dL

Q: And the TP (9 h)?
A: 6.2 g/dL

Q: What about the gamma-GTP (9 h) of the same compound?
A: 1.4 IU/L

Q: And the TERMINAL_BW (24 h)?
A: 206.5 g

Q: And the APTT (24 h)?
A: 24.1 s

Q: And the Bas (24 h)?
A: 0%

Q: And the Eos (24 h)?
A: 0.6%

Q: What about the Fbg (24 h) of the same compound?
A: 354.4 mg/dL

Q: What about the Hb (24 h) of the same compound?
A: 14.6 g/dL

Q: And the Ht (24 h)?
A: 42.3%

Q: What about the Lym (24 h) of the same compound?
A: 81.6%

Q: And the MCH (24 h)?
A: 21 pg

Q: What about the MCHC (24 h) of the same compound?
A: 34.6%

Q: And the MCV (24 h)?
A: 60.9 fL

Q: What about the Mono (24 h) of the same compound?
A: 2.6%

Q: And the Neu (24 h)?
A: 13.8%

Q: And the PT (24 h)?
A: 16.1 s

Q: And the Plat (24 h)?
A: 130.9 x10_4/uL

Q: What about the RBC (24 h) of the same compound?
A: 695 x10_4/ul

Q: What about the Ret (24 h) of the same compound?
A: 4%

Q: And the WBC (24 h)?
A: 90.8 x10_2/uL

Q: What about the KIDNEY_L (24 h) of the same compound?
A: 1 g

Q: What about the KIDNEY_R (24 h) of the same compound?
A: 1 g

Q: And the KIDNEY_TOTAL (24 h)?
A: 1.9 g

Q: What about the LIVER (24 h) of the same compound?
A: 8.1 g

Q: What about the A/G (24 h) of the same compound?
A: 1.2

Q: And the ALP (24 h)?
A: 1421.6 IU/L

Q: What about the ALT (24 h) of the same compound?
A: 35.4 IU/L

Q: And the AST (24 h)?
A: 61.4 IU/L

Q: What about the BUN (24 h) of the same compound?
A: 18.4 mg/dL

Q: What about the CRE (24 h) of the same compound?
A: 0.2 mg/dL

Q: What about the Ca (24 h) of the same compound?
A: 10.7 mg/dL

Q: What about the Cl (24 h) of the same compound?
A: 109.4 meq/L

Q: What about the DBIL (24 h) of the same compound?
A: 0.004 mg/dL

Q: What about the GLC (24 h) of the same compound?
A: 174 mg/dL

Q: What about the IP (24 h) of the same compound?
A: 7.9 mg/dL

Q: What about the K (24 h) of the same compound?
A: 4.2 meq/L

Q: What about the LDH (24 h) of the same compound?
A: 278.8 IU/L

Q: And the Na (24 h)?
A: 142.8 meq/L

Q: What about the PL (24 h) of the same compound?
A: 141.4 mg/dL

Q: And the RALB (24 h)?
A: 3.1 g/dL

Q: What about the TBIL (24 h) of the same compound?
A: 0.028 mg/dL

Q: What about the TC (24 h) of the same compound?
A: 91.4 mg/dL

Q: What about the TG (24 h) of the same compound?
A: 36.4 mg/dL

Q: And the TP (24 h)?
A: 5.8 g/dL

Q: And the gamma-GTP (24 h)?
A: 1.6 IU/L
